{
  "source": "patent US20070134315A1",
  "about": "“Orally administrable extended release pellet and tablet formulations of a highly water soluble compound” (priority 2005, published 2007)",
  "key": {"[1]": {"experiment": "Water solubility of isovaleramide and dose number", "assay_type": "physicochemical", "procedure": "The water solubility of the drug substance as used herein, is defined according to its dose number, Do, for oral drug delivery. The dose number for a drug is defined by the ratio of its dose concentration to its saturation solubility in a reference fluid according to the following calculation: [formula]\nwhere: Mo is the dose of the drug (mg), Vo is the reference fluid volume (mL) and Cs is the saturation solubility of the drug in the reference fluid (mg/mL) at 37° C. Representative reference fluids for oral drug delivery are aqueous based solutions within the relevant physiologic pH range of the gastrointestinal tract (i.e., pH 1-pH 7.5). A representative reference fluid volume for oral drug delivery is 250 mL. A drug substance is considered to be highly soluble if at its highest dose the Do value is ≦1. […] The solubility of isovaleramide in water at 37° C. is approximately 70 mg/mL. The upper range of a single daily dose of isovaleramide could be 1200 mg to 2400 mg. The Do number range for isovaleramide, calculated using a reference volume of 250 mL and the single daily dose range of 1200 mg to 2400 mg, is 0.07 to 0.14."}, "[2]": {"experiment": "Isothermal thermogravimetric analysis (TGA) of sublimation", "assay_type": "physicochemical", "procedure": "The temperature dependent physical instability of the drug substance was studied in detail in order to determine the appropriate pharmaceutical formulation processes and temperature ranges suitable for the preparation of the pharmaceutical compositions of isovaleramide. An automated thermogravimetric analysis (TGA) method was used to determine the relative rates of isovaleramide sublimation. Isothermal TGA was conducted at 30° C., 35° C., 40° C., 45° C., 50° C. and 60° C. for 24 hours. Samples were prepared by first taring a platinum TGA pan on the TGA system. A sample amount of isovaleramide of 10 mg-15 mg was then added to the pan and distributed evenly. The sample pan was then loaded onto the TGA autosampler for subsequent analysis. Samples were initially equilibrated at their respective isothermal temperature and then monitored for 24 hours. Data sampling was accomplished at a rate of 600 seconds/point. Sample replicates ranged from 1 to 3. TGA instrument and operating conditions were as follows: […]"}},
  "data": [
    {"smiles": "CC(C)CC(N)=O", "note": "[Isovaleramide, isovaleramide]", "values": [
      {"measurement": "pH dependence of solubility", "setting": "[1]; physiologic pH range of the gastrointestinal tract", "result": "pH independent solubility"},
      {"measurement": "solubility", "setting": "[1]; water, 37° C.", "result": "~70", "unit": "mg/mL"},
      {"measurement": "Reduction in Weight %", "setting": "[2]; isothermal 30° C., 1 hr", "result": 0.05, "unit": "%"},
      {"measurement": "Reduction in Weight %", "setting": "[2]; isothermal 30° C., 3 hr", "result": 0.12, "unit": "%"},
      {"measurement": "Reduction in Weight %", "setting": "[2]; isothermal 30° C., 6 hr", "result": 0.25, "unit": "%"},
      {"measurement": "Reduction in Weight %", "setting": "[2]; isothermal 30° C., 9 hr", "result": 0.41, "unit": "%"},
      {"measurement": "Reduction in Weight %", "setting": "[2]; isothermal 30° C., 12 hr", "result": 0.62, "unit": "%"},
      {"measurement": "Reduction in Weight %", "setting": "[2]; isothermal 30° C., 15 hr", "result": 0.82, "unit": "%"},
      {"measurement": "Reduction in Weight %", "setting": "[2]; isothermal 30° C., 18 hr", "result": 1.01, "unit": "%"},
      {"measurement": "Reduction in Weight %", "setting": "[2]; isothermal 30° C., 21 hr", "result": 1.20, "unit": "%"},
      {"measurement": "Reduction in Weight %", "setting": "[2]; isothermal 30° C., 24 hr", "result": 1.32, "unit": "%"},
      {"measurement": "Reduction in Weight %", "setting": "[2]; isothermal 35° C., 1 hr, mean of three", "result": 0.10, "unit": "%"},
      {"measurement": "Reduction in Weight %", "setting": "[2]; isothermal 35° C., 3 hr, mean of three", "result": 0.28, "unit": "%"},
      {"measurement": "Reduction in Weight %", "setting": "[2]; isothermal 35° C., 6 hr, mean of three", "result": 0.55, "unit": "%"},
      {"measurement": "Reduction in Weight %", "setting": "[2]; isothermal 35° C., 9 hr, mean of three", "result": 0.83, "unit": "%"},
      {"measurement": "Reduction in Weight %", "setting": "[2]; isothermal 35° C., 12 hr, mean of three", "result": 1.12, "unit": "%"},
      {"measurement": "Reduction in Weight %", "setting": "[2]; isothermal 35° C., 15 hr, mean of three", "result": 1.41, "unit": "%"},
      {"measurement": "Reduction in Weight %", "setting": "[2]; isothermal 35° C., 18 hr, mean of three", "result": 1.67, "unit": "%"},
      {"measurement": "Reduction in Weight %", "setting": "[2]; isothermal 35° C., 21 hr, mean of three", "result": 1.92, "unit": "%"},
      {"measurement": "Reduction in Weight %", "setting": "[2]; isothermal 35° C., 24 hr, mean of three", "result": 2.17, "unit": "%"},
      {"measurement": "Reduction in Weight %", "setting": "[2]; isothermal 40° C., 1 hr, mean of three", "result": 0.14, "unit": "%"},
      {"measurement": "Reduction in Weight %", "setting": "[2]; isothermal 40° C., 3 hr, mean of three", "result": 0.53, "unit": "%"},
      {"measurement": "Reduction in Weight %", "setting": "[2]; isothermal 40° C., 6 hr, mean of three", "result": 1.10, "unit": "%"},
      {"measurement": "Reduction in Weight %", "setting": "[2]; isothermal 40° C., 9 hr, mean of three", "result": 1.65, "unit": "%"},
      {"measurement": "Reduction in Weight %", "setting": "[2]; isothermal 40° C., 12 hr, mean of three", "result": 2.27, "unit": "%"},
      {"measurement": "Reduction in Weight %", "setting": "[2]; isothermal 40° C., 15 hr, mean of three", "result": 2.83, "unit": "%"},
      {"measurement": "Reduction in Weight %", "setting": "[2]; isothermal 40° C., 18 hr, mean of three", "result": 3.43, "unit": "%"},
      {"measurement": "Reduction in Weight %", "setting": "[2]; isothermal 40° C., 21 hr, mean of three", "result": 4.02, "unit": "%"},
      {"measurement": "Reduction in Weight %", "setting": "[2]; isothermal 40° C., 24 hr, mean of three", "result": 4.58, "unit": "%"},
      {"measurement": "Reduction in Weight %", "setting": "[2]; isothermal 45° C., 1 hr", "result": 0.27, "unit": "%"},
      {"measurement": "Reduction in Weight %", "setting": "[2]; isothermal 45° C., 3 hr", "result": 0.91, "unit": "%"},
      {"measurement": "Reduction in Weight %", "setting": "[2]; isothermal 45° C., 6 hr", "result": 1.97, "unit": "%"},
      {"measurement": "Reduction in Weight %", "setting": "[2]; isothermal 45° C., 9 hr", "result": 2.95, "unit": "%"},
      {"measurement": "Reduction in Weight %", "setting": "[2]; isothermal 45° C., 12 hr", "result": 3.95, "unit": "%"},
      {"measurement": "Reduction in Weight %", "setting": "[2]; isothermal 45° C., 15 hr", "result": 4.98, "unit": "%"},
      {"measurement": "Reduction in Weight %", "setting": "[2]; isothermal 45° C., 18 hr", "result": 6.02, "unit": "%"},
      {"measurement": "Reduction in Weight %", "setting": "[2]; isothermal 45° C., 21 hr", "result": 7.05, "unit": "%"},
      {"measurement": "Reduction in Weight %", "setting": "[2]; isothermal 45° C., 24 hr", "result": 8.01, "unit": "%"},
      {"measurement": "Reduction in Weight %", "setting": "[2]; isothermal 50° C., 1 hr", "result": 0.54, "unit": "%"},
      {"measurement": "Reduction in Weight %", "setting": "[2]; isothermal 50° C., 3 hr", "result": 1.65, "unit": "%"},
      {"measurement": "Reduction in Weight %", "setting": "[2]; isothermal 50° C., 6 hr", "result": 3.35, "unit": "%"},
      {"measurement": "Reduction in Weight %", "setting": "[2]; isothermal 50° C., 9 hr", "result": 5.05, "unit": "%"},
      {"measurement": "Reduction in Weight %", "setting": "[2]; isothermal 50° C., 12 hr", "result": 6.68, "unit": "%"},
      {"measurement": "Reduction in Weight %", "setting": "[2]; isothermal 50° C., 15 hr", "result": 8.35, "unit": "%"},
      {"measurement": "Reduction in Weight %", "setting": "[2]; isothermal 50° C., 18 hr", "result": 10.04, "unit": "%"},
      {"measurement": "Reduction in Weight %", "setting": "[2]; isothermal 50° C., 21 hr", "result": 11.77, "unit": "%"},
      {"measurement": "Reduction in Weight %", "setting": "[2]; isothermal 50° C., 24 hr", "result": 13.43, "unit": "%"},
      {"measurement": "Reduction in Weight %", "setting": "[2]; isothermal 60° C., 1 hr, mean of three", "result": 1.98, "unit": "%"},
      {"measurement": "Reduction in Weight %", "setting": "[2]; isothermal 60° C., 3 hr, mean of three", "result": 5.96, "unit": "%"},
      {"measurement": "Reduction in Weight %", "setting": "[2]; isothermal 60° C., 6 hr, mean of three", "result": 11.90, "unit": "%"},
      {"measurement": "Reduction in Weight %", "setting": "[2]; isothermal 60° C., 9 hr, mean of three", "result": 17.79, "unit": "%"},
      {"measurement": "Reduction in Weight %", "setting": "[2]; isothermal 60° C., 12 hr, mean of three", "result": 23.61, "unit": "%"},
      {"measurement": "Reduction in Weight %", "setting": "[2]; isothermal 60° C., 15 hr, mean of three", "result": 29.37, "unit": "%"},
      {"measurement": "Reduction in Weight %", "setting": "[2]; isothermal 60° C., 18 hr, mean of three", "result": 35.03, "unit": "%"},
      {"measurement": "Reduction in Weight %", "setting": "[2]; isothermal 60° C., 21 hr, mean of three", "result": 40.53, "unit": "%"},
      {"measurement": "Reduction in Weight %", "setting": "[2]; isothermal 60° C., 24 hr, mean of three", "result": 44.74, "unit": "%"}
    ]}
  ]
}
